From patent US10375956B2, “Herbicidally active 2-(substituted-phenyl)-cyclopentane-1,3-dione compounds and derivatives thereof” (Syngenta Limited, priority 2013, dated 2019)

Experiments:
Assay type in all cases: in vivo
Avena fatua (AVEFA) = test: Test 1 glasshouse assay, post-emergence herbicidal activity; conditions: 312 h, post-emergence (Example 1B Table 2), after 13 days, read-out: Percentage phytotoxicity AVEFA
Summary of the method: (§1)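 Post-emergence: plants sprayed after 8 days' growth in a glasshouse (24/16 °C day/night, 14 h light, 65% humidity) with compound in acetone/water 50:50 containing 0.5% Tween 20. Phytotoxicity was scored visually 13 days later as percent damage (0 = none, 100 = total).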

[1] = test system: Triticum aestivum (TRZAW, winter wheat); test: as above; conditions: 312 h, post-emergence (Example 1B Table 2), after 13 days, crop plant, read-out: Percentage phytotoxicity TRZAW
Summary of the method: as §1

Lolium perenne (LOLPE) = test: as above; conditions: 312 h, post-emergence (Example 1B Table 2), after 13 days, read-out: Percentage phytotoxicity LOLPE
Summary of the method: as §1

[2] = test system: Digitaria sanguinalis (DIGSA); test: Biological Example 3 glasshouse assay, post-emergence, various adjuvant systems; conditions: 8 g/ha
Procedure: (§2) Post-emergence foliar spray application, 200 L/ha, usually one or two replicates for the weeds (depending on application rate), and two replicates for soybean.
(§3) Standard warm conditions (tropical), in glasshouse. Specifically, the glasshouse bay conditions are 24° C./18° C. day/night; 16/8 hours light/dark; 65% humidity.
(§4) The herbicidal application takes place at the following growth stages for plants which include inter alia one or more of the following plants (usually the herbicidal application takes place on at least the following plants: DIGSA, ELEIN, SETFA, ZEAMX, GLXMA Nikko, and GLXMA TMG133, and often also either BRADC or BRAPP):
Digitaria sanguinalis (DIGSA)—growth stage 12 or 13
(§5) Each test compound is applied with one of the following adjuvant systems (all percentages are final concentrations in the aqueous spray mixture):
(§6) Adjuvant system 2: 0.5% v/v Hexamoll™ DINCH**, 1.0% v/v AMS (ammonium sulphate) and 12.5% v/v IPA (isopropyl alcohol).
(§7) Adjuvant system 3: 0.5% v/v tris-(2-ethylhexyl)phosphate (“TEHP”), 1.0% v/v AMS (ammonium sulphate) and 12.5% v/v IPA (isopropyl alcohol).
(§8) Seeds of the weed (including volunteer) plants, typically including inter alia Digitaria sanguinalis (DIGSA), Eleusine indica (ELEIN), Setaria faberi (SETFA), Zea mays (ZEAMX, corn), and sometimes also [either Brachiaria decumbens (BRADC) or Brachiaria platyphylla (BRAPP)], are sown in seed trays (troughs) containing clay loam soil (pH 7.0, 2.2% organic matter, “Trough Mix A”); and soybean seed is sown in pots containing the same soil with 3 soybean seedlings per pot. The plants are sprayed with the test herbicide when they reach the growth stages mentioned above.
(§9) The test herbicidal solutions are prepared by mixing the appropriate aliquots of the test substance(s) and one of the adjuvant systems indicated above *** in deionised water to give the desired treatment concentration.
(§10) The herbicidal application is made as a foliar spray, using a tracksprayer. Following the herbicidal application, the plants are watered twice per day for the duration of the test.
(§11) A visual assessment of the % herbicidal damage is made 7 and 14 Days After herbicide Application (DAA) (or, in a minority of cases, 7 and 15 DAA), and the results are recorded as % visual herbicidal damage where 0%=no damage to plants and 100%=plant totally killed.
(§12) Compounds A2 and A7 were tested using the 0.5% v/v Hexamoll™ DINCH™+1.0% v/v AMS+12.5% v/v IPA adjuvant system. Compounds A11, A12, A14, A20 and A21 were tested using the 0.5% v/v tris-(2-ethylhexyl)phosphate (“TEHP”)+1.0% v/v AMS+12.5% v/v IPA adjuvant system.
(§13) The percentages of herbicidal damage/plant control, at 14 Days After herbicide Application (DAA) (or, in some cases, at 15 DAA), for the Compounds tested and for some of the plants tested, were in the following percentage ranges. For the tested compounds, the phytotoxicity results shown herein are generally the average of 2 or 3 repetitions (for the grassy weeds including corn) or the average of 2 repetitions (for soybean for most of the tested compounds). However, for Compound A2 on soybean there was 1 repetion only.

[3] = test system: Zea mays (ZEAMX, maize/corn) cultivar Garland; test: as above; conditions: 8 g/ha
Procedure: as §2, §3, §4
Zea mays (ZEAMX, maize/corn, e.g. can occur as volunteer corn) cultivar “Garland”—growth stage 12 or 13
as §5, §6, §7, §8, §9, §10, §11, §12, §13
Zea mays (ZEAMX, maize, corn) is often present as a “volunteer” weed (“volunteer” corn) in fields where it was planted as a crop in preceding growing season(s) and where the present field crop is not corn.

[4] = test system: Glycine max (GLXMA, soybean) cultivar TMG133 (Roundup Ready glyphosate-tolerant); test: as above; conditions: crop
Procedure: as §2, §3, §4
Glycine max (GLXMA, soybean) cultivar “TMG133”—which is Roundup Ready™ glyphosate-tolerant soybean cultivar TMG133 (typically available from Monsanto in Brazil)—growth stage: 1st trifoliate.
as §5, §6, §7, §8, §9, §10, §11, §12, §13
Glycine max (GLXMA, soybean) cultivar “TMG133” is Roundup Ready™ glyphosate-tolerant soybean cultivar TMG133, and is typically available from Monsanto in Brazil.

[5] = test system: Brachiaria decumbens (BRADC); test: as above; conditions: 8 g/ha
Procedure: as §2, §3, §4
Brachiaria decumbens (BRADC)—growth stage (GS) 12 or 13 (or GS 12)—or, if BRADC is not used, then sometimes Brachiaria platyphylla (BRAPP)—growth stage 12 or 13
as §5, §6, §7, §8, §9, §10, §11
Compounds A2 and A7 were tested using the 0.5% v/v Hexamoll™ DINCH™+1.0% v/v AMS+12.5% v/v IPA adjuvant system. Compounds A11, A12, A14, A20 and A21 were tested using the 0.5% v/v tris-(2-ethylhexyl)phosphate (“TEHP”)+1.0% v/v AMS+12.5% v/v IPA adjuvant system. […]

Setaria faberi (SETFA) = test: as above; conditions: 8 g/ha
Procedure: as §2, §3, §4
Setaria faberi (SETFA)—growth stage 12 or 13
as §5, §6, §7, §8, §9, §10, §11, §12, §13

Eleusine indica (ELEIN) = test: as above; conditions: 8 g/ha
Procedure: as §2, §3, §4
Eleusine indica (ELEIN)—growth stage 12 or 13
as §5, §6, §7, §8, §9, §10, §11, §12, §13

[6] = test system: Glycine max (GLXMA, soybean) cultivar Nikko; test: as above; conditions: crop
Procedure: as §2, §3, §4
Glycine max (GLXMA, soybean) cultivar “Nikko”—growth stage: 1st trifoliate
as §5, §6, §7, §8, §9, §10, §11, §12, §13

[7] = 14 or 15 DAA, adjuvant 0.5% v/v TEHP + 1.0% v/v AMS + 12.5% v/v IPA
[8] = 240 g/ha, 14 or 15 DAA, adjuvant 0.5% v/v TEHP + 1.0% v/v AMS + 12.5% v/v IPA
[9] = 14 DAA, adjuvant 0.5% v/v Hexamoll DINCH + 1.0% v/v AMS + 12.5% v/v IPA
[10] = 120 g/ha, 14 DAA, adjuvant 0.5% v/v Hexamoll DINCH + 1.0% v/v AMS + 12.5% v/v IPA

Row | Compound | pest or weed control at 62.5 g/ha (Avena fatua (AVEFA)) [%] | pest or weed control at 250 g/ha (Avena fatua (AVEFA)) [%] | plant injury at 62.5 g/ha [1] [%] | plant injury at 250 g/ha [1] [%] | pest or weed control at 62.5 g/ha (Lolium perenne (LOLPE)) [%] | pest or weed control at 250 g/ha (Lolium perenne (LOLPE)) [%] | percentage control of Digitaria sanguinalis [2, 7] [%] | percentage control of Zea mays [3, 7] [%] | percentage phytotoxicity on Glycine max cultivar TMG133 [4, 8] [%] | percentage control of Brachiaria decumbens (BRADC) [5, 7] [%] | percentage control of Setaria faberi (Setaria faberi (SETFA); [7]) [%] | percentage control of Eleusine indica (Eleusine indica (ELEIN); [7]) [%] | percentage phytotoxicity on Glycine max cultivar Nikko [6, 8] [%] | percentage control of (phytotoxicity on) Digitaria sanguinalis (DIGSA) [2, 9] [%] | percentage control of (phytotoxicity on) Zea mays (ZEAMX, maize, corn) [3, 9] [%] | percentage phytotoxicity on Glycine max cultivar TMG133 [4, 10] [%] | percentage control of (phytotoxicity on) Brachiaria decumbens (BRADC) [5, 9] [%] | percentage control of (phytotoxicity on) Setaria faberi (SETFA) (Setaria faberi (SETFA); [9]) [%] | percentage control of (phytotoxicity on) Eleusine indica (ELEIN) (Eleusine indica (ELEIN); [9]) [%] | percentage phytotoxicity on Glycine max cultivar Nikko [6, 10] [%]
1 | C#CCC1CC(=O)C(c2c(Cl)cc(-c3ccc(F)cc3F)cc2OC)C1=O (centres unmarked) [Compound A12] | 60 | 100 | 70 | 80 | 70 | 100 | 98.5 | 100 | 15 | 99 | 95 | 90 | 15 |  |  |  |  |  |  | 
2 | C#CCC1CC(=O)C(c2c(C)cc(-c3ccc(Cl)cn3)cc2C)C1=O (centres unmarked) [Compound A2] | 80 | 100 | 70 | 90 | 70 | 100 |  |  |  |  |  |  |  | 90 | 10 | 20 | 50 | 90 | 85 | 10
